# Key:
# leucine aminopeptidase = assay: Inhibition of leucine aminopeptidase; format: biochemical; details: substrate L-leucine 4-nitroanilide
# Method: (§1) The activity of the enzyme aminopeptidase B was determined photometrically using the substrate L-lysine 2-naphthylamide at room temperature. […] In the same way, the inhibition of leucine aminopeptidase was investigated using L-leucine 4-nitroanilide as enzyme substrate. The IC50 values are compiled in Table 6.
# [1] = system: antibodies against tetanus toxoid; assay: Antibody response of the mouse to tetanus toxoid (ELISA); format: in vivo, female NMRI mice; details: 20-day value
# Method: (§2) Groups each containing 5 female NMRI mice with a body weight of 18 to 20 g were formed, and each of the animals received either intravenous administration of 10^8 heat-killed E coli bacteria or 300 Lf (limes of flocculation) of tetanus toxoid. Oral administration of the test substance in physiological saline (PBS) in doses of 5, 10, 20, 40 or 80 mg/kg, or of the pure vehicle (control groups), was carried out at the same time as administration of the antigen. After 10 and 20 days, blood was taken from the retroorbital venous plexus of the mice and, in the sera obtained therefrom, the IgG and IgM antibodies against E. coli organisms and tetanus toxoid were determined with the aid of the ELISA technique known to those skilled in the art, using homologous lipopolysaccharide from E. coli and tetanus toxoid, respectively, as antigen. The magnitude of the extinctions measured in the photometer is a measure of the amount of antibodies formed.
# Listeria monocytogenes [2] = assay: Mortality and organ colonization in mice infected with Listeria monocytogenes; format: in vivo, female NMRI mice; details: 4 × 10 mg/kg i.p.
# Excerpt: Female NMRI mice (10 animals/group) were infected with a low dose of Listeria monocytogenes (2×10^2).
# Listeria monocytogenes [3] = assay: DTH reaction in mice infected with Listeria monocytogenes; format: in vivo, female NMRI mice
# Method: In this experiment, the specific, cell-mediated immunity against the bacterium Listeria monocytogenes was investigated by means of the DTH reaction Female NMRI mice were infected with 2×10^2 live bacteria and then divided into groups each containing 10 animals. The treatment of the animals by intraperitoneal administration of the product in doses of 0.1, 1 or 10 mg/kg was started the same day. This treatment was repeated after 2, 4 and 6 days. Infected animals in a fourth experimental group, which received merely the pure vehicle i.p. in place of the product, acted as positive control. On day 13 of the experiment the DTH reaction was induced by injection of a soluble antigen obtained from Listeria monocytogenes into the footpad. 10 uninfected animals in a 5th experimental group (negative control) were likewise treated with the antigen in order to rule out non-specific reactions to the antigen challenge 24 hours after the administration of antigen, the percentage increase in the paw volume was determined as a measure of the induced DTH reaction.
# The same experimental system was also used to examine the effect of the test substance on i.p. administration of 10 mg/kg on the DTH reaction of female NMRI mice after infection with differing amounts of the bacterium Listeria monocytogenes. The animals received either 2×10^2 or 5×10^2 organisms. According to this, although the DTH reaction is increased by the test substance at both organism concentrations, this stimulation is distinctly more pronounced in the animal group infected with the lower number of organisms.
# [4] = system: DTH reaction to sheep erythrocytes; assay: Delayed-type hypersensitivity (DTH) reaction to sheep erythrocytes; format: in vivo, female NMRI mice
# Method: Groups each comprising 5 female NMRI mice with a body weight of 18 to 20 g were formed, and each animal was given 10^6 or 10^9 sheep red blood cells intravenously. Sheep erythrocytes are regarded in immunology as a standard antigen with which it is possible to check cellular and humoral immunoreactivity, especially the functioning of the T-cell-dependent component of the immune system, the so-called T-helper cells. The test substances were administered, in intraperitoneal doses of 5 to 100 mg/kg in physiological saline, at the same time as the antigen. After 5 days, each animal was given an injection of 2×10^8 sheep erythrocytes into the footpad. 24 hours later, the swelling of the foot was measured. The foot swelling is induced by a skin reaction of the delayed type (DTH reaction) and, as is known to those skilled in the art, is a measure of the cellular immune response (J. Immunol. 101 (1968), 830-845). The test results obtained with the product of Example 34, by way of example, are compiled in Table 7 and illustrate that the compounds of the formula I--administered prophylactically--are able to increase the cellular immune response after immunization with the antigen by stimulation of the T-cell system, with the stimulant action reaching its optimum in this experiment at a dose of 25 mg/kg.
# peritoneal macrophages = assay: Activation of peritoneal macrophages: chemiluminescence (oxidative metabolism); details: for Chemiluminescence: single dose
# [5] = system: antibodies against E. coli organisms; assay: Antibody response of the mouse to dead E. coli organisms (ELISA); format: in vivo, female NMRI mice; details: for Antibody response to dead E. coli organisms, IgM: 10-day value; for Antibody response to dead E. coli organisms, IgG: 20-day value
# Method: as §2
# aminopeptidase B = aminopeptidase B (Homo sapiens, UniProt Q9H4A4); assay: Inhibition of aminopeptidase B; format: biochemical; details: substrate L-lysine 2-naphthylamide, room temperature; read-out: Aminopeptidase B IC50 (converted)
# Method: as §1
# aminopeptidase B, sequence (Q9H4A4 whole entry, species assumed): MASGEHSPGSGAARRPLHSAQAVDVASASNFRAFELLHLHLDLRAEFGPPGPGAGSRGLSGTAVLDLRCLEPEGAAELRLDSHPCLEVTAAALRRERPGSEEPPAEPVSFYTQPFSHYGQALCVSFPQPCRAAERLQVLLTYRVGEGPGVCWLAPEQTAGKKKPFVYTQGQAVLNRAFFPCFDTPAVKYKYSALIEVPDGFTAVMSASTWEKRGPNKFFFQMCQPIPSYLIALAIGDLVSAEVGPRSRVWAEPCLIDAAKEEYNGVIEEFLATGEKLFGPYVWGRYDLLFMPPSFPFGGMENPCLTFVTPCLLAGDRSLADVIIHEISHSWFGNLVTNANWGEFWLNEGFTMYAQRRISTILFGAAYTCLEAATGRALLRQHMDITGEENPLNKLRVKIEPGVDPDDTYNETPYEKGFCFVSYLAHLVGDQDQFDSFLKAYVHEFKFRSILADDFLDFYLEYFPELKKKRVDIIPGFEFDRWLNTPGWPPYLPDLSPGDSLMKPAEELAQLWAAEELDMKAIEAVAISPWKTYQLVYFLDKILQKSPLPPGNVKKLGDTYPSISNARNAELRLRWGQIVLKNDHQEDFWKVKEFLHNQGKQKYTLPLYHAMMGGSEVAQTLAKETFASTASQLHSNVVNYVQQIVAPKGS
structure (smiles),measurement,setting,value
"O=P(O)(O)C1CC(c2ccccc2)=NO1 (racemic) [Example 34, 3-Phenyl-2-isoxazolin-5-ylphosphonic acid]",Leucine aminopeptidase IC50,leucine aminopeptidase,24 μug/ml
same,"Antibody response to tetanus toxoid, IgG",[1]; 5 mg/kg 1 × p.o.,865 ± 182 mE492nm
same,"Antibody response to tetanus toxoid, IgG",[1]; 10 mg/kg 1 × p.o.,1213 ± 255 mE492nm
same,"Antibody response to tetanus toxoid, IgG",[1]; 20 mg/kg 1 × p.o.,1852 ± 261 mE492nm
same,"Antibody response to tetanus toxoid, IgG",[1]; 40 mg/kg 1 × p.o.,1357 ± 348 mE492nm
same,"Antibody response to tetanus toxoid, IgG",[1]; 80 mg/kg 1 × p.o.,1154 ± 232 mE492nm
same,survival of the second infection,Listeria monocytogenes [2],survived the second infection
same,% of surviving animals with organisms in the liver,Listeria monocytogenes [2]; 5 days after second infection,20%
same,Mortality after secondary infection,Listeria monocytogenes [2]; second infection 10^6 organisms,0/10
same,DTH reaction % increase in the paw volume,"Listeria monocytogenes [3]; 2×10^2 bacteria, 0.1 mg/kg 4 × i.p.",13.3 ± 9.7%
same,DTH reaction % increase in the paw volume,"Listeria monocytogenes [3]; 2×10^2 bacteria, 1.0 mg/kg 4 × i.p.",15.0 ± 7.0%
same,DTH reaction % increase in the paw volume,"Listeria monocytogenes [3]; 2×10^2 bacteria, 10.0 mg/kg 4 × i.p., p <0.05 (Student's t test)",19.2 ± 9.4%
same,DTH reaction % increase in the paw volume,"Listeria monocytogenes [3]; Table 13 experiment: 2 × 10^2 organisms, 4 × 10 mg/kg i.p.",30.9 ± 15.3%
same,DTH reaction % increase in the paw volume,"Listeria monocytogenes [3]; Table 13 experiment: 5 × 10^2 organisms, 4 × 10 mg/kg i.p.",17.9 ± 12.1%
same,% Foot swelling after immunization,"[4]; 10^6 erythrocytes, 5.0 mg/kg 1x i.p.",25.3 ± 5.8%
same,% Foot swelling after immunization,"[4]; 10^6 erythrocytes, 10.0 mg/kg 1x i.p.",28.9 ± 7.7%
same,% Foot swelling after immunization,"[4]; 10^6 erythrocytes, 12.5 mg/kg 1x i.p.",29.9 ± 3.5%
same,% Foot swelling after immunization,"[4]; 10^6 erythrocytes, 20.0 mg/kg 1x i.p.",32.5 ± 3.0%
same,% Foot swelling after immunization,"[4]; 10^6 erythrocytes, 25.0 mg/kg 1x i.p.",33.7 ± 6.6%
same,% Foot swelling after immunization,"[4]; 10^6 erythrocytes, 40.0 mg/kg 1x i.p.",29.7 ± 4.7%
same,% Foot swelling after immunization,"[4]; 10^6 erythrocytes, 50.0 mg/kg 1x i.p.",29.2 ± 6.9%
same,% Foot swelling after immunization,"[4]; 10^6 erythrocytes, 100.0 mg/kg 1x i.p.",27.3 ± 4.6%
same,% Foot swelling after immunization,"[4]; 10^9 erythrocytes, 5.0 mg/kg 1x i.p.",22.8 ± 3.5%
same,% Foot swelling after immunization,"[4]; 10^9 erythrocytes, 10.0 mg/kg 1x i.p.",24.1 ± 5.7%
same,% Foot swelling after immunization,"[4]; 10^9 erythrocytes, 12.5 mg/kg 1x i.p.",26.1 ± 8.9%
same,% Foot swelling after immunization,"[4]; 10^9 erythrocytes, 20.0 mg/kg 1x i.p.",30.5 ± 6.5%
same,% Foot swelling after immunization,"[4]; 10^9 erythrocytes, 25.0 mg/kg 1x i.p.",34.1 ± 7.4%
same,% Foot swelling after immunization,"[4]; 10^9 erythrocytes, 40.0 mg/kg 1x i.p.",32.8 ± 5.6%
same,% Foot swelling after immunization,"[4]; 10^9 erythrocytes, 50.0 mg/kg 1x i.p.",28.1 ± 4.1%
same,% Foot swelling after immunization,"[4]; 10^9 erythrocytes, 100.0 mg/kg 1x i.p.",26.6 ± 5.0%
same,dose at which the stimulant action (DTH reaction) reaches its optimum,[4]; i.p.,25 mg/kg
same,Relative stimulation of the DTH reaction,"[4]; single i.p. dose of 40 mg/kg, maximal stimulation by Example 34 = 100%",100%
same,Chemiluminescence,peritoneal macrophages; 5 mg/kg i.p.,842 ± 42 RLU/15 min × 10^3
same,Chemiluminescence,peritoneal macrophages; 5 mg/kg p.o.,728 ± 101 RLU/15 min × 10^3
same,Chemiluminescence,peritoneal macrophages; 10 mg/kg i.p.,2842 ± 223 RLU/15 min × 10^3
same,Chemiluminescence,peritoneal macrophages; 10 mg/kg p.o.,2140 ± 156 RLU/15 min × 10^3
same,Chemiluminescence,peritoneal macrophages; 20 mg/kg i.p.,4935 ± 516 RLU/15 min × 10^3
same,Chemiluminescence,peritoneal macrophages; 20 mg/kg p.o.,3286 ± 283 RLU/15 min × 10^3
same,Chemiluminescence,peritoneal macrophages; 40 mg/kg i.p.,6990 ± 290 RLU/15 min × 10^3
same,Chemiluminescence,peritoneal macrophages; 40 mg/kg p.o.,4405 ± 197 RLU/15 min × 10^3
same,"chemiluminescence, in words",peritoneal macrophages; i.p. and p.o.,pronounced dose-dependent increase in chemiluminescence
same,"Antibody response to dead E. coli organisms, IgM",[5]; 5 mg/kg 1 × p.o.,1217 ± 264 mE492nm
same,"Antibody response to dead E. coli organisms, IgG",[5]; 5 mg/kg 1 × p.o.,1377 ± 324 mE492nm
same,"Antibody response to dead E. coli organisms, IgM",[5]; 10 mg/kg 1 × p.o.,1411 ± 179 mE492nm
same,"Antibody response to dead E. coli organisms, IgG",[5]; 10 mg/kg 1 × p.o.,1663 ± 191 mE492nm
same,"Antibody response to dead E. coli organisms, IgM",[5]; 20 mg/kg 1 × p.o.,1657 ± 231 mE492nm
same,"Antibody response to dead E. coli organisms, IgG",[5]; 20 mg/kg 1 × p.o.,1951 ± 468 mE492nm
same,"Antibody response to dead E. coli organisms, IgM",[5]; 40 mg/kg 1 × p.o.,1523 ± 288 mE492nm
same,"Antibody response to dead E. coli organisms, IgG",[5]; 40 mg/kg 1 × p.o.,2434 ± 312 mE492nm
same,"Antibody response to dead E. coli organisms, IgM",[5]; 80 mg/kg 1 × p.o.,1459 ± 208 mE492nm
same,"Antibody response to dead E. coli organisms, IgG",[5]; 80 mg/kg 1 × p.o.,2217 ± 273 mE492nm
same,IC50,aminopeptidase B,99.1 µM

# — US5006515A, “Pharmaceuticals, phosphorus-containing 2-isoxazolines and isoxazoles contained therein” (Hoechst Aktiengesellschaft, priority 1987, dated 1991)
